Patent publication US20180042231A1, “Systems and Methods for the Continuous On-Site Production of Peroxycarboxcylic Acid Solutions” (Eltron Water Systems, LLC, priority 2016, published 2018)

Tests used:
[1] = Degradation (self-decay) of PAA solution over time; assay type: physicochemical; settings: for degradation rate of non-equilibrium PAA: 2% concentration
From the text: Sometimes it is desirable to remove the very strong odor of the final equilibrium PAA product, such as when it is used indoors. Anti-microbial efficacy is roughly the same whether the PAA is in an acidic or alkaline state. The two most significant differences are: 1) alkaline PAA has no odor and 2) alkaline PAA self-degrades very rapidly when the pH is above 8, usually at 5-10% per hour. In situations where the PAA is to be used within minutes or hours of when it is made alkaline, the addition of an alkali earth metal in solution with water can be used alone or with more water to both dilute the PAA and raise its pH to any desired level, eliminating its odor. At this point other materials may be added to the alkaline PAA such as detergents, fragrance additives and even foaming agents.
The system of the present invention is designed such that the PAA is produced in a unique manner which differs substantially from prior art processes, the end product being inherently not at equilibrium. At 2% concentration, it degrades at about 6% per day if the pH is below 7 (acidic) and at 5-10% per hour when the pH is above 7. Use of a stabilizer will not halt that decay. Accordingly, the system herein disclosed is designed to generate PAA to be used within minutes or hours of when it is made, thereby eliminating the need for a stabilizer used by every other PAA manufacturer in the world.

[2] = Dissolution of triacetin in water; assay type: physicochemical; settings: room temperature
From the text: A second method involves pre-dissolving traicetin in water outside the generator using time and mixing to eliminate the strands and globules. This approach requires a significant amount of extra water to be supplied to the generator, since at room temperature, the maximum amount of triacetin that can be dissolved is only approximately 4%.

For CC(=O)OO [PAA, peracetic acid], the “degradation rate of non-equilibrium PAA” value ([1]; pH above 7) was 5-10 % per hour, the “degradation rate of non-equilibrium PAA” value ([1]; pH below 7 (acidic)) was “about 6 % per day” and the “self-degradation rate of alkaline PAA” value ([1]; equilibrium PAA made alkaline, pH above 8) was 5-10 % per hour.

With CC(=O)OCC(COC(C)=O)OC(C)=O [triacetin, 1,2,3-triacetoxypropane] the “maximum amount of triacetin that can be dissolved in water” value [2] was “approximately 4%”.
